As a reminder, the pIC50 is −log10 of the IC50, conventionally taken in molar units. As usually defined, the EC50 is the concentration that produces a half-maximal response.

pEC50, pIC50: −log10 of the molar value. Entries after “also recorded” stand apart in the source; their conditions may differ. Read-outs that look alike come from different tables or passages of the source.

Results on twelve compounds are retold here after patent US11629141B2, “Proteasome inhibitors and uses thereof” (CORNELL UNIVERSITY, priority 2015, dated 2023).

The target in experiment [1] is T1, human immunoproteasome β5i (Homo sapiens, UniProt P28062).
T1 construct: purchased Boston Biochem Inc
Description: IC50 against chymotryptic β5i activity of human immunoproteasome (96-well plate, Ac-ANW-AMC). The following applies: for pIC50: β5i, substrate Ac-ANW-AMC, read-out: IC50 Hu i-20S (Ac-ANW-AMC). Type of experiment: biochemical. The procedure:
A 96-well-plate assays were used to determine the IC50s against the chymotryptic β5 activities of the proteasomes. Both human constitutive proteasome and immunoproteasome were purchased from Boston Biochem Inc. 1 μL of 100× compound in DMSO at designated concentrations were spotted at the bottom of the wells. DMSO was used as a control. […] The hydrolysis of the substrate over time in each well was monitored at excitation 360 nm, emission 460 nm for 90 minutes. IC50s were estimated by fitting the velocities of hydrolysis against compound concentrations using PRISM. […] SDS (0.02%) was used as activator, and 0.01% BSA was used in the reaction buffer.

The next experiment deals with Plasmodium falciparum. Description: Growth of Plasmodium falciparum in red blood cells (SYBR Green, 72 hours). Format: cell-based. The following applies: for EC50: P.f. 3D7, growth in red blood cells, read-out: EC50 (nM) (P.f.). How it is done:
Continuous in vitro cultures of Plasmodium falciparum: were maintained in human red blood cells (RBC) diluted to a hematocrit of 5% in RPMI 1640 medium with HEPES and Hypoxanthine and completed with 0.5% Albumax II (Invitrogen), 0.25% sodium bicarbonate, and 0.1 mg/ml gentamicin. Parasites were incubated at 37° C. in a gas mixture of 5% oxygen, 5% carbon dioxide, and 90% nitrogen.
Parasite sensitivity to novel compounds were determined using a SYBR Green (Invitrogen S1046) drug assay protocol. P. falciparum of various clinic stains were cultured with compounds at concentrations in a series of dilution in a clear, sterile 96-well plate for 72 hours. Subsequently, 150 μl of the cultures were transferred to a black 96-well plate and placed in the freezer for red blood cell lysis. The plates were thawed and suspended in a Sybr Green Lysis buffer. GraphPad Prism was used to analyze the raw data collected […]. Drug concentrations were converted to logarithms, normalized, and then curve fitted by non-linear regression to obtain EC50 values.
Plasmodium falciparum: parasites were cultured in human red cells. Drug assays were run in 96 well plates at a total volume of 200 μl. Assays were set up at a starting parasitemia (percent of infected red cells) of 0.5%. Test compounds were plated at concentrations of 2778 nM to 0.4 nM. The test plates were grown under standard low oxygen conditions at 37° C. for 72 hours. At that time the plates were prepared for growth determination, first the plates were frozen and thawed to lyse the red blood cells, 150 μl of the lysed thawed culture was transferred to a black 96 well plate, and mixed in a lysis buffer with SYBR green DNA dye. The fluorescence of each well was recorded in a plate reader with excitation wavelength 490 nm and emission wavelength 530 nm and normalized relative to DMSO control. The EC50s were determined using Prism software.

For experiment [2], the target named is T2, human constitutive proteasome β5c (Homo sapiens, UniProt P28074).
T2 construct: purchased Boston Biochem Inc
Description: IC50 against chymotryptic β5c activity of human constitutive proteasome (96-well plate, Suc-LLVY-AMC). Type of experiment: biochemical. The settings on record: β5c; substrate Suc-LLVY-AMC; read-out: IC50 Hu c-20S (Suc-LLVY-AMC). The procedure: A 96-well-plate assays were used to determine the IC50s against the chymotryptic β5 activities of the proteasomes. Both human constitutive proteasome and immunoproteasome were purchased from Boston Biochem Inc. 1 μL of 100× compound in DMSO at designated concentrations were spotted at the bottom of the wells. DMSO was used as a control. Final concentrations of the inhibitors were from 100 μM to 0.098 μM. The hydrolysis of the substrate over time in each well was monitored at excitation 360 nm, emission 460 nm for 90 minutes. IC50s were estimated by fitting the velocities of hydrolysis against compound concentrations using PRISM. […] Suc-LLVY-AMC was used for βc at final concentration of 25 μM, and Ac-ANW-AMC for b5i at final concentration of 15 μM. SDS (0.02%) was used as activator, and 0.01% BSA was used in the reaction buffer.
The foregoing features of these AsnEDA encouraged a further round of SAR studies (Table 5) based on varying the carboxylic acid at the ethylenediamine, the N-cap at the Asn, and the side chain of the Asn, based on PKS21004. All compounds listed in the Table 5 were synthesized as described in Examples 6-77. All final compounds were confirmed by NMR and HRMS. IC50s of all compounds against β5i and β5c (Table 5), β1i, β2i, β1c and β2c were determined following a reported method (Lin et al., “N,C-Capped Dipeptides With Selectivity for Mycobacterial Proteasome Over Human Proteasomes: Role of S3 and S1Binding Pockets,” J Am Chem Soc. 135:9968-9971 (2013), which is hereby incorporated by reference in its entirety). […] The [1,1′-biphenyl]-3-carboxamide of PKS21004 was then modified with the following substituents: 4′-fluoro (PKS21026), 4′-cyano (PKS21028), 4-fluoro (PKS21196), 4,3′-difluoro (PKS21195) and 4,2′-difluoro (PKS21187).

Another experiment has as its system Pf Gametocytes. Description: Gametocyte killing assay (DilC1(5), flow cytometry). The settings on record: Plasmodium falciparum; NF54 peg4-tdTomato, 72 hour incubation; read-out: EC50 against Pf Gametocytes. Type of experiment: cell-based. The procedure: Asexual replication of NF54 peg4-tdTomato parasites was eliminated by treating with 50 mM GlcNAc and 20 U/mL Heparin for 3 days. NF54 peg4-tdTomato parasites then were maintained using standard culture techniques. Gametocytes were induced synchronously according to Fivelman et al., “Improved Synchronous Production of Plasmodium Falciparum Gametocytes in Vitro,” Mol Biochemo Parasitol. 154(1):119-123 (2007), which is hereby incorporated by reference in its entirety. Asexual replication was eliminated by treating with 50 mM GlcNAc for 3 days. Gametocyte killing assays were setup on days 5 and 10 in triplicate 96-well format at 1% hematocrit and 2% gametocytemia. Compounds were setup in triplicate and serially diluted 3-fold. In addition, 6 solvent controls (DMSO) were distributed evenly across the plate. Following a 72 hour incubation, Stage III-IV (Day 5-7) and Stage IV-V (Day 10-12), (start the incubation in the afternoon on Day 5 and Day 10, take out plate for assay on Day8 and Day13 afternoon) cultures were stained with 16 nM Hoechst 33342 and 50 nM DilC1(5) for 30 min at 37 C. Using a Cytek DxP12 flow cytometer, gametocytemia was determined by gating for DNA+, hemozoin-high cells and gametocyte viability was inferred based on mitochondrial membrane potential-dependent accumulation of DilC1(5) for 2000-3000 gametocytes (Tanaka et al., “Potent Plasmodium Falciparum Gametocytocidal Activity of Diaminonaphthoquinones, Lead Antimalarial Chemotypes Identified in an Antimalarial Compound Screen,” Antimicrob. Agents Chemother. 2015, 59:1389 (2015), which is hereby incorporated by reference in its entirety). Mean DilC1(5) signal was normalized to solvent control and the overall minimum and used to calculate the EC50 (FIG. 3 and Table 4).

For a further experiment, the system named is Pf20S β5. Description: Labeling of Pf20S active subunits by activity probe MV151 in Pf lysates. Format: biochemical, P. falciparum. The following applies: 1 hour with inhibitor, then MV151 (2 μM) 1 hour. The procedure: Pf lysates were incubated with inhibitors at indicated concentrations for 1 hour prior to incubation with MV151 (2 μM) for an additional hour. SDS pages were scanned on a Typhoon fluorescent scanner. […] BTZ was used as a positive control.

With `Cc1ccc(S(=O)(=O)N[C@@H](CC(=O)NC(C)(C)C)C(=O)NCCNC(=O)c2ccccc2F)cc1` [PKS21291], the values for the pIC50 in experiment [1] and in experiment [2] were 7.26 and 6.28, respectively. Moreover, in the experiment with Plasmodium falciparum (Erythrocyte), the 50% effective concentration (EC50) was determined as 11 nM.

Regarding `Cc1cc(C(=O)N[C@@H](CC(=O)NC(C)(C)C)C(=O)NCCNC(=O)c2cccc(-n3cccn3)c2)no1` [TDI4258], the EC50 in the experiment on Plasmodium falciparum (Erythrocyte) was 29 nM.

Consider `Cc1ccc(S(=O)(=O)N[C@@H](CC(=O)NC(C)(C)C)C(=O)NCCNC(=O)c2cc(-c3ccccc3)ccn2)cc1` [PKS21229], for which the values for the pIC50 in experiment [1] and in experiment [2] were 7.72 and 6.29, respectively. Further, in the experiment with Plasmodium falciparum (Erythrocyte), the concentration for a half-maximal effect (EC50) was determined as 1 nM.

As to `Cc1cc(C(=O)N[C@@H](CC(=O)NC(C)(C)C)C(=O)NCCNC(=O)c2cccc(-c3cc[nH]n3)c2)no1` [PKS21287], the pIC50 in experiment [1] is 5.94; in experiment [2], 4.68. Further, the 50% effective concentration (EC50) in the experiment on Plasmodium falciparum (Erythrocyte) worked out at 34 nM. Also, in the experiment with Pf Gametocytes, the pEC50 was 6.69. The “labeling of Pf20S β5 by MV151” value with Pf20S β5 is “block labeling; also recorded: dose-dependently inhibited the labeling”.

In the case of `CC(C)(C)NC(=O)C[C@H](NC(=O)CCc1ccccc1)C(=O)NCCCNC(=O)c1cccc(-c2ccccc2)c1` [PKS21019], the negative-log IC50 (pIC50) in experiment [1] was 6.56; in experiment [2], 5.46. Besides, the EC50 in the experiment with Plasmodium falciparum (Erythrocyte) was 30 nM.

With `CC(C)(C)NC(=O)C[C@H](NC(=O)CCc1ccccc1)C(=O)NCCNC(=O)c1ccc2ccccc2c1` [PKS21025], in experiment [1] (relative to PKS3080), the “improved potency against β5i” value amounted to 3 fold. The “selectivity for β5i over β5c” value in experiment [1] (β5i over β5c) amounted to 26 fold. Moreover, the pIC50 in experiment [1] was 6.55; in experiment [2] it was 5.44. The EC50 in the experiment with Plasmodium falciparum (Erythrocyte) worked out at 320 nM.

In the case of `CC(C)(C)NC(=O)C[C@H](NC(=O)CCc1ccccc1)C(=O)NCCNC(=O)c1cccc(-c2ccc(F)cc2)c1` [PKS21026], the values for the pIC50 in experiment [1] and in experiment [2] were 6.96 and 5.94, respectively. For the same compound, the EC50 in the experiment with Plasmodium falciparum (Erythrocyte) came to 100 nM.

On to `CC(CNC(=O)c1cccc(-c2ccccc2)c1)NC(=O)[C@H](CC(=O)NC(C)(C)C)NC(=O)CCc1ccccc1` (mixture of isomers) [PKS21018], for which the results for the pIC50 in experiment [1] and in experiment [2] were 5.63 and 4.84, respectively. Also, the concentration for a half-maximal effect (EC50) in the experiment with Plasmodium falciparum (Erythrocyte) stood at 364 nM.

On to `CC(C)(C)NC(=O)C[C@H](NC(=O)CCc1ccccc1)C(=O)NCCNC(=O)c1ccc(-c2ccccc2)cc1` [PKS21003], for which the negative logarithm of the IC50 (pIC50) in experiment [1] and in experiment [2] was < 4.00 in each case. For the same compound, the pEC50 with Plasmodium falciparum (D6, Erythrocyte, read-out: EC50s against P. falciparum strain D6) was < 5.56; in the experiment with Plasmodium falciparum (DD2, Erythrocyte, read-out: EC50s against P. falciparum strain Dd2), < 5.56; with Plasmodium falciparum (Erythrocyte, read-out: EC50s against P. falciparum strain IPC 3663) it was < 5.56; in the experiment on Plasmodium falciparum (Erythrocyte, read-out: EC50s against P. falciparum strain IPC 4884), < 5.56; in the experiment on Plasmodium falciparum (Erythrocyte, read-out: EC50s against P. falciparum strain IPC 5188), < 5.56; in the experiment with Plasmodium falciparum (Erythrocyte, read-out: EC50s against P. falciparum strain Sb1-a6), < 5.56. The pEC50 in the experiment on Plasmodium falciparum (Erythrocyte, read-out: EC50s against P. falciparum strain V1S) was < 5.56; in the experiment on Plasmodium falciparum (HB3, Erythrocyte, read-out: EC50s against P. falciparum strain HB3), < 5.56. Besides, the EC50 with Plasmodium falciparum (Erythrocyte) is > 2770 nM. Further, the “labeling of Pf20S β5 by MV151” value in the experiment with Pf20S β5 was “did not”.

Consider `CC(C)(C)NC(=O)C[C@H](NC(=O)CCc1ccccc1)C(=O)NCCNC(=O)c1cccc2ccccc12` [PKS3080], for which the pIC50 in experiment [1] is 6.43; in experiment [2], 5.91. The EC50 in the experiment with Plasmodium falciparum (Erythrocyte) worked out at 23 nM.

`Cc1cc(C(=O)N[C@@H](CC(=O)NC(C)(C)C)C(=O)NCCNC(=O)c2cc(-c3ccccc3)ccn2)no1` [PKS21224]: the pIC50 was 6.13 in experiment [1] and 4.47 in experiment [2]. In addition, the EC50 in the experiment on Plasmodium falciparum (Erythrocyte) turned out to be 11 nM. The pEC50 in the experiment on Pf Gametocytes is 6.79.

In the case of `Cc1ccc(S(=O)(=O)N[C@@H](CC(=O)NC(C)(C)C)C(=O)NCCNC(=O)c2ccccc2O)cc1` [PKS21292], the pIC50 is 7.82 in experiment [1] and 6.73 in experiment [2]. The EC50 with Plasmodium falciparum (Erythrocyte) was 2.9 nM.
